Assays:
Rattus norvegicus = assay: (§1) Oral bioavailability in rat; format: ADME, organism-based; settings: in vivo
[1] = Fraction of the dose absorbed in rat; format: ADME, organism-based; settings: in vivo, read-out: Fabs
[2] = Oral bioavailability in human; format: ADME, organism-based; settings: in vivo
[3] = Apparent permeability across apical to basolateral side of MDCK cells; format: ADME, cell-based, Canis lupus familiaris; settings: dog
[4] = as §1; format: ADME, organism-based; settings: in vivo

| SMILES | F (Rattus norvegicus) [%] | Fa [1] [%] | bioavailability [2] [%] | Papp A→B [3] [nm/s] | bioavailability [4] [%] |
| --- | --- | --- | --- | --- | --- |
| COCCCOc1cc(C[C@@H](C[C@H](N)[C@@H](O)C[C@H](C(=O)NCC(C)(C)C(N)=O)C(C)C)C(C)C)ccc1OC | 0.1 | 0.5 | 3 | 10 | – |
| COC(=O)N[C@H](C(=O)N[C@@H](Cc1ccccc1)[C@@H](O)CN(Cc1ccc(-c2ccccn2)cc1)NC(=O)[C@@H](NC(=O)OC)C(C)(C)C)C(C)(C)C [ATAZANAVIR] | – | 54 | 60 | 350 | 10 |
